The text below walks through data of publication PMC7531004, “Discovery of gramicidin A analogues with altered activities by multidimensional screening of a one-bead-one-compound library” (Nature Communications, 2020).

Where a SMILES comes first, the peptide text is derived from it. [ ]: non-standard residue; d: D form. The star is where a group is joined. NHCH2CH2OH = OCCN*; For = O=C*

Data set [1] is described as follows: H+/Na+ transport assay of bead-derived peptides (one-point).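 Note: relative to parent gramicidin A activity set to 1.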 Type of data set: biochemical. Details: key: relative activity; mean of two control wells = 1.00. The note with it: bead-derived peptide solution, EYPC/EYPG LUVs. The method in brief: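 Values are normalized fluorescence, with Triton X-100 defining 100% and untreated LUVs 0%, and the two control wells averaging 1.00. Vesicles carried 1.0 mM pyranine and included egg yolk phosphatidylglycerol. Peptides were incubated with them 30 min at room temperature.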

The test system of data set [2] is P388 mouse leukemia cells. The note with it: 92 h. The method in brief: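 First, library peptide stocks are diluted 250-fold in RPMI1640 with 10% heat-inactivated FBS. Next, they are mixed with P388 cells to give 1 × 10^4 cells/mL and incubated 92 h at 37 °C, 5% CO2. Finally, viability (%) is scored by WST-1 absorbance at 415 nm.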
In data set [3] the test system is Streptococcus pyogenes SSI-9. Put plainly: Antibacterial activity assay of bead-derived peptides (three concentrations). Type of data set: cell-based. The note with it: S. pyogenes, bead-derived peptide solution, three concentrations. Details: key: +++: inhibition by the 640-fold diluted peptide solution; ++: inhibition by the 160-fold diluted solution; +: inhibition by the 40-fold diluted solution; -: no inhibition. The method in brief:
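Three stock dilutions per peptide (none, 4-fold, 16-fold in DMSO) are screened in 96-well format. The medium is blood-supplemented cation-adjusted MHB, inoculated with 2 × 10^5 CFU S. pyogenes SSI-9. Growth is read as cell precipitation at 18 h, 37 °C.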

In the case of `CC(C)C[C@@H](NC(=O)[C@H](C)NC(=O)CNC(=O)[C@@H](NC=O)C(C)C)C(=O)N[C@@H](C)C(=O)N[C@@H](C(=O)N[C@H](C(=O)N[C@@H](C(=O)N[C@@H](Cc1c[nH]c2ccccc12)C(=O)N[C@@H](C(=O)N[C@@H](Cc1c[nH]c2ccccc12)C(=O)N[C@@H](C(=O)N[C@@H](Cc1c[nH]c2ccccc12)C(=O)N[C@@H](C(=O)N[C@@H](Cc1c[nH]c2ccccc12)C(=O)NCCO)C(C)C)C(C)C)C(C)C)[C@H](C)O)C(C)C)C(C)C` [compound 12429] (For-VGA[dL]A[dV]V[dT]W[dV]W[dV]W[dV]W-NHCH2CH2OH), the “H+/Na+ transport activity normalized against the value of 1 (1.00)” value (from here on “H+/Na+ transport activity normalized”) in data set [1] worked out at 1.03. This compound came in with a cell viability/% in data set [2] of 100.0%. Also, the antibacterial activity result in data set [3] was “-”.
For `CC(C)C[C@@H](NC(=O)[C@H](Cc1c[nH]c2ccccc12)NC(=O)[C@@H](CC(C)C)NC(=O)[C@H](Cc1c[nH]c2ccccc12)NC(=O)[C@H](NC(=O)[C@H](Cc1c[nH]c2ccccc12)NC(=O)[C@@H](CC(C)C)NC(=O)[C@@H](NC(=O)[C@H](NC(=O)[C@H](C)NC(=O)[C@H](NC(=O)[C@H](C)NC(=O)CNC(=O)[C@@H](NC=O)C(C)C)C(C)C)C(C)C)C(C)C)C(C)C)C(=O)N[C@@H](Cc1c[nH]c2ccccc12)C(=O)NCCO` [compound 12538] (For-VGA[dV]A[dV]V[dL]W[dV]W[dL]W[dL]W-NHCH2CH2OH), in data set [1], the “H+/Na+ transport activity normalized” value came to 1.01. Besides, the cell viability/% in data set [2] is 2.1%. Besides, in data set [3], the antibacterial activity entry is “-”.
For the compound `CNC(=O)C[C@@H](NC(=O)[C@@H](NC(=O)[C@@H](CC(C)C)NC(=O)[C@H](C)NC(=O)[C@H](NC(=O)[C@H](C)NC(=O)CNC(=O)[C@@H](NC=O)C(C)C)C(C)C)C(C)C)C(=O)N[C@@H](Cc1c[nH]c2ccccc12)C(=O)N[C@@H](C(=O)N[C@@H](Cc1c[nH]c2ccccc12)C(=O)N[C@@H](C(=O)N[C@@H](Cc1c[nH]c2ccccc12)C(=O)N[C@@H](C(=O)N[C@@H](Cc1c[nH]c2ccccc12)C(=O)NCCO)C(C)C)C(C)C)C(C)C` [compound 12576] (For-VGA[dV]A[dL]V[dD](NHMe)W[dV]W[dV]W[dV]W-NHCH2CH2OH), the “H+/Na+ transport activity normalized” value in data set [1] is recorded as 1.09. Besides, the cell viability/% in data set [2] turned out to be 100.0%. Moreover, the antibacterial activity result in data set [3] was “-”.
On to `CC(C)C[C@@H](NC(=O)[C@H](Cc1c[nH]c2ccccc12)NC(=O)[C@H](NC(=O)[C@H](Cc1c[nH]c2ccccc12)NC(=O)[C@H](NC(=O)[C@H](Cc1c[nH]c2ccccc12)NC(=O)[C@H](NC(=O)[C@@H](NC(=O)[C@H](NC(=O)[C@H](C)NC(=O)[C@H](NC(=O)[C@H](C)NC(=O)CNC(=O)[C@@H](NC=O)C(C)C)C(C)C)C(C)C)C(C)C)C(C)C)C(C)C)C(C)C)C(=O)N[C@@H](Cc1c[nH]c2ccccc12)C(=O)NCCO` [compound 12606] (For-VGA[dV]A[dV]V[dV]W[dV]W[dV]W[dL]W-NHCH2CH2OH), for which the “H+/Na+ transport activity normalized” value in data set [1] was 1.05. The compound further gave a cell viability/% in data set [2] of 100.0%. Besides, in data set [3], the antibacterial activity result is listed as “-”.
For `CNC(=O)C[C@@H](NC(=O)[C@@H](NC(=O)[C@H](NC(=O)[C@H](C)NC(=O)[C@@H](CC(C)C)NC(=O)[C@H](C)NC(=O)CNC(=O)[C@@H](NC=O)C(C)C)C(C)C)C(C)C)C(=O)N[C@@H](Cc1c[nH]c2ccccc12)C(=O)N[C@@H](C(=O)N[C@@H](Cc1c[nH]c2ccccc12)C(=O)N[C@@H](C(=O)N[C@@H](Cc1c[nH]c2ccccc12)C(=O)N[C@H](CC(C)C)C(=O)N[C@@H](Cc1c[nH]c2ccccc12)C(=O)NCCO)C(C)C)C(C)C` [compound 12636] (For-VGA[dL]A[dV]V[dD](NHMe)W[dV]W[dV]W[dL]W-NHCH2CH2OH), the “H+/Na+ transport activity normalized” value in data set [1] was 1.21. The compound further showed a cell viability/% in data set [2] of 100.0%. The antibacterial activity entry in data set [3] is “-”.
As for `CNC(=O)C[C@@H](NC(=O)[C@@H](NC(=O)[C@@H](CC(C)C)NC(=O)[C@H](C)NC(=O)[C@H](NC(=O)[C@H](C)NC(=O)CNC(=O)[C@@H](NC=O)C(C)C)C(C)C)C(C)C)C(=O)N[C@@H](Cc1c[nH]c2ccccc12)C(=O)N[C@H](CC(C)C)C(=O)N[C@@H](Cc1c[nH]c2ccccc12)C(=O)N[C@@H](C(=O)N[C@@H](Cc1c[nH]c2ccccc12)C(=O)N[C@H](CC(C)C)C(=O)N[C@@H](Cc1c[nH]c2ccccc12)C(=O)NCCO)C(C)C` [compound 12687] (For-VGA[dV]A[dL]V[dD](NHMe)W[dL]W[dV]W[dL]W-NHCH2CH2OH), in data set [1], the “H+/Na+ transport activity normalized” value is listed as 1.29. Further, the cell viability/% in data set [2] stood at 100.0%. In addition, the antibacterial activity result in data set [3] was “-”.
Consider `CNC(=O)C[C@@H](NC(=O)[C@H](Cc1c[nH]c2ccccc12)NC(=O)[C@H](NC(=O)[C@H](Cc1c[nH]c2ccccc12)NC(=O)[C@H](NC(=O)[C@H](Cc1c[nH]c2ccccc12)NC(=O)[C@@H](CC(C)C)NC(=O)[C@@H](NC(=O)[C@H](NC(=O)[C@H](C)NC(=O)[C@H](NC(=O)[C@H](C)NC(=O)CNC(=O)[C@@H](NC=O)C(C)C)C(C)C)C(C)C)C(C)C)C(C)C)C(C)C)C(=O)N[C@@H](Cc1c[nH]c2ccccc12)C(=O)NCCO` [compound 12691] (For-VGA[dV]A[dV]V[dL]W[dV]W[dV]W[dD](NHMe)W-NHCH2CH2OH), for which the “H+/Na+ transport activity normalized” value in data set [1] worked out at 1.11. The compound also yielded a cell viability/% in data set [2] of 100.0%. Besides, the antibacterial activity result in data set [3] is “-”.
In the case of `CNC(=O)C[C@@H](NC(=O)[C@@H](NC(=O)[C@@H](CC(C)C)NC(=O)[C@H](C)NC(=O)[C@H](NC(=O)[C@H](C)NC(=O)CNC(=O)[C@@H](NC=O)C(C)C)C(C)C)C(C)C)C(=O)N[C@@H](Cc1c[nH]c2ccccc12)C(=O)N[C@H](CC(C)C)C(=O)N[C@@H](Cc1c[nH]c2ccccc12)C(=O)N[C@@H](C(=O)N[C@@H](Cc1c[nH]c2ccccc12)C(=O)N[C@@H](C(=O)N[C@@H](Cc1c[nH]c2ccccc12)C(=O)NCCO)C(C)C)C(C)C` [compound 12707] (For-VGA[dV]A[dL]V[dD](NHMe)W[dL]W[dV]W[dV]W-NHCH2CH2OH), in data set [1], the “H+/Na+ transport activity normalized” value was determined as 1.06. Moreover, in data set [2], the cell viability/% was 100.0%. The antibacterial activity entry in data set [3] is reported as “-”.
In the case of `CC(C)C[C@@H](NC(=O)[C@H](Cc1c[nH]c2ccccc12)NC(=O)[C@H](NC(=O)[C@H](Cc1c[nH]c2ccccc12)NC(=O)[C@H](NC(=O)[C@H](Cc1c[nH]c2ccccc12)NC(=O)[C@@H](CC(C)C)NC(=O)[C@@H](NC(=O)[C@H](NC(=O)[C@H](C)NC(=O)[C@H](NC(=O)[C@H](C)NC(=O)CNC(=O)[C@@H](NC=O)C(C)C)C(C)C)C(C)C)C(C)C)C(C)C)C(C)C)C(=O)N[C@@H](Cc1c[nH]c2ccccc12)C(=O)NCCO` [compound 12721] (For-VGA[dV]A[dV]V[dL]W[dV]W[dV]W[dL]W-NHCH2CH2OH), the “H+/Na+ transport activity normalized” value in data set [1] was found to be 1.04. In data set [2], the cell viability/% was 51.7%. Moreover, the antibacterial activity result in data set [3] was “+”.
Consider `CC(C)C[C@@H](NC(=O)[C@H](C)NC(=O)[C@H](NC(=O)[C@H](C)NC(=O)CNC(=O)[C@@H](NC=O)C(C)C)C(C)C)C(=O)N[C@H](C(=O)N[C@@H](C(=O)N[C@@H](Cc1c[nH]c2ccccc12)C(=O)N[C@H](CC(C)C)C(=O)N[C@@H](Cc1c[nH]c2ccccc12)C(=O)N[C@H](CC(C)C)C(=O)N[C@@H](Cc1c[nH]c2ccccc12)C(=O)N[C@@H](C(=O)N[C@@H](Cc1c[nH]c2ccccc12)C(=O)NCCO)C(C)C)C(C)C)C(C)C` [compound 12789] (For-VGA[dV]A[dL]V[dV]W[dL]W[dL]W[dV]W-NHCH2CH2OH), for which the “H+/Na+ transport activity normalized” value in data set [1] amounted to 1.04. Moreover, the cell viability/% in data set [2] came to 9.6%. Besides, the antibacterial activity entry in data set [3] is “-”.
Take `CC(C)C[C@@H](NC(=O)[C@H](C)NC(=O)[C@H](NC(=O)[C@H](C)NC(=O)CNC(=O)[C@@H](NC=O)C(C)C)C(C)C)C(=O)N[C@H](C(=O)N[C@H](CC(C)C)C(=O)N[C@@H](Cc1c[nH]c2ccccc12)C(=O)N[C@H](CC(C)C)C(=O)N[C@@H](Cc1c[nH]c2ccccc12)C(=O)N[C@H](CC(C)C)C(=O)N[C@@H](Cc1c[nH]c2ccccc12)C(=O)N[C@H](CC(C)C)C(=O)N[C@@H](Cc1c[nH]c2ccccc12)C(=O)NCCO)C(C)C` [compound 12877] (For-VGA[dV]A[dL]V[dL]W[dL]W[dL]W[dL]W-NHCH2CH2OH): in data set [1], the “H+/Na+ transport activity normalized” value is reported as 1.04. The cell viability/% in data set [2] is on record as 4.7%. The antibacterial activity entry in data set [3] is “-”.
With `CC(C)C[C@@H](NC(=O)[C@H](Cc1c[nH]c2ccccc12)NC(=O)[C@H](NC(=O)[C@H](Cc1c[nH]c2ccccc12)NC(=O)[C@@H](CC(C)C)NC(=O)[C@@H](NC(=O)[C@H](NC(=O)[C@H](C)NC(=O)[C@H](NC(=O)[C@H](C)NC(=O)CNC(=O)[C@@H](NC=O)C(C)C)C(C)C)C(C)C)C(C)C)C(C)C)C(=O)N[C@@H](Cc1c[nH]c2ccccc12)C(=O)N[C@@H](C(=O)N[C@@H](Cc1c[nH]c2ccccc12)C(=O)NCCO)C(C)C` [compound 12947] (For-VGA[dV]A[dV]V[dL]W[dV]W[dL]W[dV]W-NHCH2CH2OH), the “H+/Na+ transport activity normalized” value in data set [1] was 1.02. In data set [2], this compound showed a cell viability/% of 10.2%. Further, in data set [3], the antibacterial activity entry is “+”.
